Assays:
[1] = extraction solvent; source not given; cited from earlier work
intestinal α-glucosidase = intestinal α-glucosidase (Rattus norvegicus, UniProt P23739); experiment: In vitro intestinal α-glucosidase inhibitory assay (sucrose substrate, glucose release); type: biochemical; details: for Inhibition Type: Lineweaver–Burk plots, inhibitor 50 µM (acarbose 5 µM); for Vmax: enzyme Vmax in presence of inhibitor 50 µM (acarbose 5 µM), control 14.1 ± 0.7
Description: The effect of the N. sativa seed extracts and fractions against intestinal α-glucosidase activity was quantified colorimetrically by monitoring the glucose release from sucrose degradation, according to the protocol described by Ouassou et al.. The assay mixtures contained 100 µL of sucrose (50 Mm), 1000 μL of phosphate- buffer (50 mM; pH = 7.5), and 100 μL of intestinal α-glucosidase enzyme solution (10 IU). […] Then, tubes were incubated at 37 °C in a water bath for 25 min. The mixture was heated at 100 °C for 5 min to stop the enzymatic reaction, and the release of glucose was estimated by the glucose oxidase method using a commercially available auto-kit. The absorbance was measured at 500 nm, and the inhibition percentage was calculated using the below formula:Inhibitory activity percentage = ((Acontrol 500 nm − ATest 500 nm)/Acontrol 500 nm) × 100(1)
The assays were conducted as described above. […] The experiments were repeated three times.

pancreatic α-amylase = target: T1, pancreatic α-amylase (Sus scrofa, UniProt P00690); experiment: In vitro pancreatic α-amylase inhibitory assay (starch substrate, DNSA); details: for Inhibition Type: Lineweaver–Burk plots, inhibitor 50 µM (acarbose 5 µM); for Vmax: enzyme Vmax in presence of inhibitor 50 µM (acarbose 5 µM), control 29.6 ± 0.8
T1 sequence (P00690 16-511): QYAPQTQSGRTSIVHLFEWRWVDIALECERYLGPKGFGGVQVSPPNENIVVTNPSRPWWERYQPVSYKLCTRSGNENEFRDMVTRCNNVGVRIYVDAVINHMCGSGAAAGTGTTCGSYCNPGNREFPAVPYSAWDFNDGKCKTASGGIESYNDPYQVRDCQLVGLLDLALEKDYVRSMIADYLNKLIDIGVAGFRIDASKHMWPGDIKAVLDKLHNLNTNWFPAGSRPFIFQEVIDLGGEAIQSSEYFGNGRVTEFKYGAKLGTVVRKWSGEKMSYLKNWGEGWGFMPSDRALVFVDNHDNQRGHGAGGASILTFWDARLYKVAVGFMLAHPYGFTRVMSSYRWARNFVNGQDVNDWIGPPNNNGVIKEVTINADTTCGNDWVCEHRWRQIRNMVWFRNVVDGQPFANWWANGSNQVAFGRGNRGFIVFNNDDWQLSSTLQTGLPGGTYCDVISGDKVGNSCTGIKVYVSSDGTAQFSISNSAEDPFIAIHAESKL
Description: The inhibition of pancreatic α-amylase activity by N. sativa seed extracts and fractions was studied according to the procedure described by Daoudi et al. [29]. […] The mixtures were pre-incubated at 37 °C for 10 min. Then, 200 μL of starch (1% (w/v)) dissolved in phosphate buffer was added to each tube and were incubated for 20 min at 37 °C. To stop the enzymatic reaction 600 μL of DNSA color reagent was added. Hereafter, the tubes were incubated for 8 min at 100 °C, before being put in an ice-cold-water bath for a few minutes. The mixture was diluted by adding 1 mL of distilled water and the absorbance was measured at 540 nm. Inhibition percentage was calculated using the formula bellows:Inhibitory activity percentage= ((AControl 540 nm − ATest 540 nm)/AControl 540 nm) × 100(2)
Lineweaver–Burk double reciprocal representation (plotting 1/velocity vs 1/substrate concentration) was used to assess inhibition mode, and kinetic parameters Km and Vmax were determined using the Michaelis-Menten equation.
Secondary plots were used to establish the inhibition constants Ki (slope of the Lineweaver–Burk double reciprocal representation vs inhibitor concentration and intercept of the Lineweaver–Burk double reciprocal representation vs inhibitor concentration).

Chain of intestinal α-glucosidase (P23739 whole entry): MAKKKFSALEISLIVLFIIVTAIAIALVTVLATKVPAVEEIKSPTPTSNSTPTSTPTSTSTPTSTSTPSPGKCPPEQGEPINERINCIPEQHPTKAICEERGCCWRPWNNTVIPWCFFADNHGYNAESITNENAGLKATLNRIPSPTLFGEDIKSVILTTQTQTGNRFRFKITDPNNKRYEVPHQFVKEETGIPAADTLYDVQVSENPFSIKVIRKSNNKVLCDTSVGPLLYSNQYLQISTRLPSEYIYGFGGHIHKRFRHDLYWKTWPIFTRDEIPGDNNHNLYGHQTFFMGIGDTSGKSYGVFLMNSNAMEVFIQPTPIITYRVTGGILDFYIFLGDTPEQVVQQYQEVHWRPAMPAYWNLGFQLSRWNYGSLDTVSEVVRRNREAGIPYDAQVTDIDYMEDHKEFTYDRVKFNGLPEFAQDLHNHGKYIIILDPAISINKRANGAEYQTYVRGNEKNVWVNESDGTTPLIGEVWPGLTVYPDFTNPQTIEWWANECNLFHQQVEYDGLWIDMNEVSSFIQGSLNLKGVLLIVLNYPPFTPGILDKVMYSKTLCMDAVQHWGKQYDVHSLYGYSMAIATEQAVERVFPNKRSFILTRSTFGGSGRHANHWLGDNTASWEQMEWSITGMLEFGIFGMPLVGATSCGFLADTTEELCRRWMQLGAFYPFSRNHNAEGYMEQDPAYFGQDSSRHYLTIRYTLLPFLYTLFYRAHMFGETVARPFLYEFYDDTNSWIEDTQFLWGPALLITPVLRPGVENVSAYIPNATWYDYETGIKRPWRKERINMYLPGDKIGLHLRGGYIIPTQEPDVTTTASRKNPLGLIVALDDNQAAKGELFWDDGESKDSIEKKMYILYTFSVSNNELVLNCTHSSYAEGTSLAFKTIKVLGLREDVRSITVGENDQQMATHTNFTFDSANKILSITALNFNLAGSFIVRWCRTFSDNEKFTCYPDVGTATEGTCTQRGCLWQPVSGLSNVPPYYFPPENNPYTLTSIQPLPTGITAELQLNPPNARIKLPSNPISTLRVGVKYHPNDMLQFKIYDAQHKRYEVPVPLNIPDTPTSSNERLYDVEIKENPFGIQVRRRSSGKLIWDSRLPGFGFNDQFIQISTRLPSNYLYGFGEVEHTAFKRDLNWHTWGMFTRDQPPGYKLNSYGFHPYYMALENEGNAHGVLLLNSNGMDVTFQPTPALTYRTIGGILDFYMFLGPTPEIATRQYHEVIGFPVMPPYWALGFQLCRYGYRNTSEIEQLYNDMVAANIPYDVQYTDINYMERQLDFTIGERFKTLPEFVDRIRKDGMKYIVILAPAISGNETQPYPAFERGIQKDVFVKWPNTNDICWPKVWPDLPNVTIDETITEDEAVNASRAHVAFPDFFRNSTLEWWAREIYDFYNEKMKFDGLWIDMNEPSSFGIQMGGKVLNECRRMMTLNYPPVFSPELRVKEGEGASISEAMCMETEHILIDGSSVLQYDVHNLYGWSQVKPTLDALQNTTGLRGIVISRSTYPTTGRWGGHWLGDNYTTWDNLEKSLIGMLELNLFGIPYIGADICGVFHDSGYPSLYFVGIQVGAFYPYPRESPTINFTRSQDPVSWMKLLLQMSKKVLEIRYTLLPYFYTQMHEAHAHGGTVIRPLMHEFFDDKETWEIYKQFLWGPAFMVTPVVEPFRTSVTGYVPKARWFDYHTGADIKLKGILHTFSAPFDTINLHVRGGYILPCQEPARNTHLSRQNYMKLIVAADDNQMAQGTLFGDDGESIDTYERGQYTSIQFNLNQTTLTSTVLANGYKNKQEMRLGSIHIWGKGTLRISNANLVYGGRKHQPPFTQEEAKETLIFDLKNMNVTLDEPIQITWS

Row | Compound | Inhibition Type (intestinal α-glucosidase) | Vmax (intestinal α-glucosidase) [µM/min] | Inhibition Type (pancreatic α-amylase) | Vmax (pancreatic α-amylase) [µM/min] | also measured
1 | CC(C)=O [Acetone] | – | – | – | – | logP [1]: −0.16
2 | O=C(O)c1cc(O)c(O)c(O)c1 [Gallic acid, gallic acid] | Noncompetitive | 14.7 ± 1.2 | Competitive | 76.9 ± 1.4 | IC50 (pancreatic α-amylase): 27.8 ± 2.06 µM
3 | CC1=CC(=O)C(C(C)C)=CC1=O [thymoquinone] | – | – | – | – | inhibition of intestinal α-glucosidase (in words) (intestinal α-glucosidase; under the evaluated concentration range (50 µM in kinetics), data not shown): not active
4 | Oc1cc(O)c2c(c1)O[C@@H](c1ccc(O)c(O)c1)[C@H](O)C2 [(−)-Catechin, (−)-catechin] | Noncompetitive | 13.1 ± 0.9 | – | – | fractional inhibition concentration (FIC) (intestinal α-glucosidase; mixed with acarbose, FIC = IC50 in combination with acarbose/IC50 alone, synergistic effect): 0.16
5 | C[C@H]1O[C@H](O[C@H]2[C@H](O)[C@@H](O)[C@@H](O[C@H]3[C@H](O)[C@@H](O)C(O)O[C@@H]3CO)O[C@@H]2CO)[C@H](O)[C@@H](O)[C@@H]1N[C@H]1C=C(CO)[C@@H](O)[C@H](O)[C@H]1O (stereo partly shown) [Acarbose, acarbose, reference compound] | Competitive | 23.9 ± 0.5 | Competitive | 53.8 ± 1.1 | inhibition at 50 µM (intestinal α-glucosidase; read-out: Inhibition of intestinal α-glucosidase activity): 89.2 ± 0.5%; Inhibition of pancreatic α-amylase activity (pancreatic α-amylase; positive control at 5 µM (3.22 µg/mL)): 65.6 ± 4.1%
6 | O=c1cc(-c2ccc(O)cc2)oc2cc(O)cc(O)c12 [Apigenin, apigenin] | – | – | Competitive | 90.1 ± 0.7 | fractional inhibition concentration (FIC) (pancreatic α-amylase; combined with acarbose, possible additive effect): 0.74

Reference: publication PMC8393492, “Linking the Phytochemicals and the α-Glucosidase and α-Amylase Enzyme Inhibitory Effects of Nigella sativa Seed Extracts” (Foods, 2021)
